What all share (format): functional, cell-based
The nature of assay [1]: Cytotoxicity against Homo sapiens (human) SMMC-7404 cells assessed as cell viability after 72 hr by MTT assay.
The nature of assay [2]: Cytotoxicity against Homo sapiens (human) MGC7901 cells assessed as cell viability after 72 hr by MTT assay. (In general: Tetrazolium assays rely on reduction of a dye to a coloured formazan, in cell work by metabolically active cells.)
In another assay the test system is HeLa. Put plainly: Cytotoxicity against Homo sapiens (human) HeLa cells assessed as cell viability after 72 hr by MTT assay.

Broadly, the IC50 is the concentration that gives 50% inhibition. As for `CC(C)CCC[C@@H](C)[C@H]1CC[C@H]2[C@@H]3C/C(=N/O)C4C[C@@H](OS(=O)(=O)[O-])CC[C@]4(C)[C@H]3CC[C@]12C.[Na+]` (some centres not stated), the IC50 in assay [1] came to 12.9 µM; in assay [2], 6.5 µM; in the assay with HeLa, 9.6 µM.

Turning to `CC[C@H](/C=C/[C@@H](C)[C@H]1CC[C@H]2[C@@H]3C/C(=N/O)C4C[C@@H](OS(=O)(=O)[O-])CC[C@]4(C)[C@H]3CC[C@]12C)C(C)C.[Na+]` (some centres not stated), the concentration for half-maximal inhibition (IC50) in assay [1] is above 100 µM; in assay [2], 27.7 µM; with HeLa it was 14.3 µM.

As for `CC(C)CCC[C@@H](C)[C@H]1CC[C@H]2[C@@H]3C/C(=N/O)C4=C[C@@H](OS(=O)(=O)[O-])CC[C@]4(C)[C@H]3CC[C@]12C.[Na+]`, the IC50 in assay [1] is 62.2 µM; in assay [2], above 100 µM; with HeLa it was 25.3 µM.

Take `CC(C)CCC[C@@H](C)[C@H]1CC[C@H]2[C@@H]3C[C@H](OS(=O)(=O)[O-])C4C/C(=N/O)CC[C@]4(C)[C@H]3CC[C@]12C.[Na+]` (some centres not stated): the IC50 in assay [1] was 10.2 µM; in assay [2], 33.3 µM; with HeLa it was 12.5 µM.

Values taken from ChEMBL document CHEMBL3044644, “Syntheses and antiproliferative activity of some sulfated hydroximinosterols” (Med Chem Res, 2013).
